Results: the supplement of paper PMC10307832

Key:
Experiment in all cases: relative viability (nuclei count vs DMSO), 5 days (fraction); higher = more cells survive
[1] = compound: C1CN(CCC1C(C2=CC3=C(C=C2)OCO3)(C4=CC5=C(C=C4)OCO5)O)C(=O)OC6=CC=C(C=C6)[N+](=O)[O-] [JZL-184] + CC(=O)c1c(C)c2cnc(Nc3ccc(N4CCNCC4)cn3)nc2n(C2CCCC2)c1=O [Palbociclib] (partner 0.5 µM)
In short: (§1)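 Nuclei were stained with Hoechst during a one-step fixation (final 0.05% Triton X-100, 1% formaldehyde, 1 ug/ml Hoechst) carried out 5 days after dosing, then counted on 4× images. The cells, lung cancer lines in 1536-well plates, had been dosed by pin tool the day after seeding with one drug alone or a fixed anchor-drug dose plus five library-drug doses (not always all listed) in √10 steps. Relative viability is the nuclei count in treated wells divided by that in vehicle wells, and each value is the median of duplicate plates.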

[2] = compound: C1CN(CCC1C(C2=CC3=C(C=C2)OCO3)(C4=CC5=C(C=C4)OCO5)O)C(=O)OC6=CC=C(C=C6)[N+](=O)[O-] [JZL-184] + CCNC(=O)c1noc(-c2cc(C(C)C)c(O)cc2O)c1-c1ccc(CN2CCOCC2)cc1 [Luminespib] (partner 0.01 µM)
In short: as §1

[3] = compound: C1CN(CCC1C(C2=CC3=C(C=C2)OCO3)(C4=CC5=C(C=C4)OCO5)O)C(=O)OC6=CC=C(C=C6)[N+](=O)[O-] [JZL-184] + C[C@]1(O)C[C@@H](c2nc(-c3ccc4ccc(-c5ccccc5)nc4c3)c3c(N)nccn32)C1 [Linsitinib] (partner 1 µM)
In short: as §1

[4] = compound: C1CN(CCC1C(C2=CC3=C(C=C2)OCO3)(C4=CC5=C(C=C4)OCO5)O)C(=O)OC6=CC=C(C=C6)[N+](=O)[O-] [JZL-184] + NC(=O)Nc1cc(-c2cccc(F)c2)sc1C(=O)N[C@H]1CCCNC1 [AZD7762] (partner 0.2 µM)
In short: as §1

[5] = compound: C1CN(CCC1C(C2=CC3=C(C=C2)OCO3)(C4=CC5=C(C=C4)OCO5)O)C(=O)OC6=CC=C(C=C6)[N+](=O)[O-] [JZL-184] + O=C(c1cc(Cc2n[nH]c(=O)c3ccccc23)ccc1F)N1CCN(C(=O)C2CC2)CC1 [Olaparib] (partner 8 µM)
In short: as §1

Cell Line | relative viability ([1]; first compound 0.04 µM) | relative viability ([1]; first compound 0.4 µM) | relative viability ([1]; first compound 1.265 µM) | relative viability ([1]; first compound 4 µM) | relative viability ([2]; first compound 0.04 µM) | relative viability ([2]; first compound 0.4 µM) | relative viability ([2]; first compound 1.265 µM) | relative viability ([2]; first compound 4 µM) | relative viability ([3]; first compound 0.04 µM) | relative viability ([3]; first compound 0.4 µM) | relative viability ([3]; first compound 1.265 µM) | relative viability ([3]; first compound 4 µM) | relative viability ([4]; first compound 0.04 µM) | relative viability ([4]; first compound 0.4 µM) | relative viability ([4]; first compound 1.265 µM) | relative viability ([4]; first compound 4 µM) | relative viability ([5]; first compound 0.04 µM) | relative viability ([5]; first compound 0.4 µM) | relative viability ([5]; first compound 1.265 µM) | relative viability ([5]; first compound 4 µM)
NCI-H1437 | 0.333 | 0.321 | 0.297 | 0.282 | 1.19 | 1.14 | 0.947 | 1.08 | 1.24 | 1.01 | 1.07 | 0.958 | 1.19 | 1.07 | 1.15 | 1.19 | 0.665 | 0.61 | 0.632 | 0.636
NCI-H1651 | 0.547 | 0.529 | 0.558 | 0.519 | 0.894 | 0.797 | 0.902 | 0.765 | 0.988 | 0.927 | 0.933 | 0.816 | 0.427 | 0.455 | 0.456 | 0.474 | 0.24 | 0.176 | 0.196 | 0.207
NCI-H1666 | 0.685 | 0.642 | 0.636 | 0.668 | 1.13 | 1.02 | 0.999 | 0.912 | 0.836 | 0.921 | 0.917 | 0.881 | 0.915 | 0.764 | 0.818 | 0.923 | 0.755 | 0.716 | 0.712 | 0.735
NCI-H1734 | 0.394 | 0.293 | 0.37 | 0.292 | 0.207 | 0.206 | 0.185 | 0.222 | 0.852 | 0.796 | 0.898 | 0.86 | 0.571 | 0.518 | 0.719 | 0.625 | 0.674 | 0.589 | 0.627 | 0.547
NCI-H1755 | 0.44 | 0.451 | 0.473 | 0.452 | 0.598 | 0.418 | 0.26 | 0.405 | 0.976 | 1.01 | 1.01 | 0.943 | 0.397 | 0.379 | 0.456 | 0.433 | 0.812 | 0.896 | 0.891 | 0.895
NCI-H1792 | 0.677 | 0.687 | 0.659 | 0.656 | 0.401 | 0.383 | 0.56 | 0.408 | 0.573 | 0.462 | 0.653 | 0.51 | 0.747 | 0.548 | 0.713 | 0.858 | 0.349 | 0.304 | 0.465 | 0.432
NCI-H1793 | 0.271 | 0.285 | 0.281 | 0.312 | 0.162 | 0.165 | 0.153 | 0.156 | 0.849 | 0.82 | 0.853 | 0.707 | 0.359 | 0.465 | 0.742 | 0.401 | 0.978 | 0.911 | 0.933 | 0.861
NCI-H1915 | 0.506 | 0.511 | 0.531 | 0.511 | 0.913 | 0.682 | 0.8 | 0.718 | 1.14 | 0.996 | 1.09 | 1.02 | 0.76 | 0.58 | 0.726 | 0.697 | 0.262 | 0.264 | 0.273 | 0.233
